Results from patent EP1832586A1, “Thiazole-piperidine derivatives in treatment of diseases of liver and the pancreas” (Oridis Biomed Forschungs- und Entwicklungs GmbH, priority 2006, dated 2007).

Assays:
Type in all cases: cell-based
HuH7 = test: CellTiter-Glo luminescent cell viability (proliferation) assay, HuH7; conditions: inhibition of HuH7 (human hepatoma) proliferation, 48 hours incubation, 10% FCS
Protocol: (§1) To practically assess the impact of the thiazole-piperidine derivatives, e.g. derivatives of piperidinyl-thiazole carboxylic acid and/or piperidinyl thiazole carboxamide, in the treatment and/or prevention of diseases according to the invention, the inhibition of cell proliferation is determined by using a luminescent cell viability assay (CellTiter-Glo®; Promega, Madison, USA). The assay is based on the relation that the ATP content is directly proportional to the number of cells present in the culture. The CellTiter-Glo® assay is performed to measure the proliferation rate of human hepatoma (HuH7, PLC/PRF/5, Hep3B, SK-Hep1), human hepatoblastoma (HepG2), human colon carcinoma (CX-2), human breast cancer (SK-Br-3), human ovarian carcinoma (HeLa) and human pancreatic carcinoma (DAN-G) cell lines. […] In particular, the compound according to formula (1) wherein R^1 is 4-isopropoxycarbonylphenyl, R^2 is 3-indolylmethyl, R^3 is hydrogen, R^4 is hydrogen, n is zero, A is a single bond, B is carbonyl, and wherein the residue R^1NR^3CO is connected to the carbon atom bound to nitrogen of the thiazole ring (compound no. XI in Table 1) inhibits proliferation of the human cell lines HepG2 and Hep3B with 10.8 and 3.5 µM, respectively.
(§2) To determine the inhibition of cell proliferation a luminescent cell viability assay (CellTiter-Glo®; Promega, Madison, USA) is implemented. The assay is based on the relation that the ATP content is directly proportional to the number of cells present in the culture (Technical Bulletin No. 228 "CellTiter-Glo® Luminescent Cell viability Assay", Revised 2/04. Promeg, Madison, USA). The CellTiter-Glo® assay is performed to measure the proliferation rate of human hepatoma (HuH7, PLC/PRF/5, Hep3B, SK-Hep1), human hepatoblastoma (HepG2), human colon carcinoma (CX-2), human breast cancer (SK-Br-3), human ovarian carcinoma (HeLa) and human pancreatic carcinoma (DAN-G) cell lines. 3000 viable cells (viability ≥ 90%) are seeded in opaque-walled 96-well plates and incubated for 24 hours in DMEM, supplemented with 2 mM glutamin. Cell proliferation is stimulated by addition of FCS to a final concentration of 10% (v/v). Simultaneously the compounds (see Table 1 and 2) are added in a concentration range of 0 to 20 µM. Triplicates are measured for each concentration. Cells and compounds (see Table 1 and 2) are incubated for a period of 48 hours in a volume of 140 µl cell culture medium (10% (v/v) FCS, 2 mM Glutamin, DMEM). The compounds according to the invention are dissolved in 60% to 100% (v/v) DMSO at a concentration of 2 mM. The final DMSO concentration under assay conditions never exceeds 1% (v/v). Throughout the assay cells are kept in a humidified incubator (95% rH) at 37°C and 5% CO2.
(§3) The final cell number is determined after 48 hour of incubation. Therefore 140 µl CellTiter-Glo®Reagent is added in each well. The contents are mixed on an orbital shaker for 2 minutes at room temperature. After subsequent incubation for additional 10 minutes at room temperature the luminescence signal is recorded within 30 min. EC50 values are calculated using the four-parametric Hill equation (Sigma Plot). Control values are: • 1) 10% (v/v) FCS, 2 mM glutamin, DMEM -> maximum cell number • 2) 2 mM glutamin, DMEM -> initial cell number

DAN-G = test: CellTiter-Glo luminescent cell viability (proliferation) assay, DAN-G; conditions: DAN-G (human pancreatic carcinoma) proliferation, 48 hours incubation, 10% FCS
Protocol: as §1, §2, §3

CX-2 = test: CellTiter-Glo luminescent cell viability (proliferation) assay, CX-2; conditions: CX-2 (human colon carcinoma) proliferation, 48 hours incubation, 10% FCS
Protocol: as §1, §2, §3

HeLa = test: CellTiter-Glo luminescent cell viability (proliferation) assay, HeLa; conditions: Hela (human ovarian carcinoma [sic]) proliferation, 48 hours incubation, 10% FCS
Protocol: as §1, §2, §3

SK-Br-3 = test: CellTiter-Glo luminescent cell viability (proliferation) assay, SK-Br-3; conditions: Sk-Br-3 (human breast cancer) proliferation, 48 hours incubation, 10% FCS
Protocol: as §1, §2, §3

## O=C(Nc1ccc2ncccc2c1)c1csc(C2CCN(C(=O)CC3C=Nc4ccccc43)CC2)n1 (stereo not shown) [III]
HuH7; Homo sapiens, Huh-7, 48 h
  EC50: 1.39 µM
DAN-G
  EC50: 1.99 µM
CX-2
  EC50: 9.3 µM
HeLa
  EC50: 3.95 µM
SK-Br-3
  EC50: 7.07 µM

## O=C(Nc1ccc(F)c([N+](=O)[O-])c1)c1csc(C2CCN(C(=O)Cc3c[nH]c4ccccc34)CC2)n1 [II]
HuH7; Huh-7
  EC50: 3.42 µM
DAN-G
  EC50: 3.16 µM
CX-2
  EC50: > 20 µM
HeLa
  EC50: 12.1 µM
SK-Br-3
  EC50: 10.4 µM

## COc1ccc(CNC(=O)c2csc(C3CCN(C(=O)CC4C=Nc5ccccc54)CC3)n2)cc1OC (stereo not shown) [IV]
HuH7; Homo sapiens, Huh-7, 48 h
  EC50: 3.76 µM
DAN-G
  EC50: 7.52 µM
CX-2
  EC50: > 20 µM
HeLa
  EC50: 10.3 µM
SK-Br-3
  EC50: > 20 µM

## O=C(Nc1cccc(-c2cnco2)c1)c1csc(C2CCN(C(=O)Cc3c[nH]c4ccccc34)CC2)n1 [IX]
HuH7; Huh-7
  EC50: 12.1 µM

## O=C(Nc1cc(-c2ccccc2)[nH]n1)c1csc(C2CCN(C(=O)Cc3c[nH]c4ccccc34)CC2)n1 [I]
HuH7; Huh-7
  EC50: 5.35 µM

## O=C(CC1C=Nc2ccccc21)N1CCC(c2nc(C(=O)N3CCN(c4ncccn4)CC3)cs2)CC1 (stereo not shown) [LIII]
HuH7; Homo sapiens, Huh-7, 48 h
  EC50: 1.63 µM
DAN-G
  EC50: 18.2 µM
CX-2
  EC50: > 20 µM
HeLa
  EC50: 23.6 µM
SK-Br-3
  EC50: 19.5 µM

## O=C(Nc1ccc2c(c1)OCCO2)c1csc(C2CCN(C(=O)NC3C=C(c4ccccc4)N=N3)CC2)n1 (stereo not shown) [LII]
HuH7; Homo sapiens, Huh-7, 48 h
  EC50: 19.5 µM

## Cn1nc(-c2ccccc2)cc1NC(=O)c1csc(C2CCN(C(=O)C3CCCCC3)CC2)n1 [LIV]
HuH7; Homo sapiens, Huh-7, 48 h
  EC50: 5.5 µM

## O=C(Nc1ccc2c(c1)C(=O)OC2)c1csc(C2CCN(C(=O)CC3C=Nc4ccccc43)CC2)n1 (stereo not shown) [LIX]
HuH7; Homo sapiens, Huh-7, 48 h
  EC50: 7.13 µM

## O=C(CC1C=Nc2ccccc21)N1CCC(c2nc(C(=O)N3CCN(c4ccc(Cl)c(Cl)c4)CC3)cs2)CC1 (stereo not shown) [LI]
HuH7; Homo sapiens, Huh-7, 48 h
  EC50: 4.9 µM

## CCOc1cccc(C(=O)NNC(=O)c2csc(C3CCN(C(=O)CC4C=Nc5ccccc54)CC3)n2)c1 (stereo not shown) [LVIII]
HuH7; Homo sapiens, Huh-7, 48 h
  EC50: 4.58 µM

## C#CC1(NC(=O)c2csc(C3CCN(C(=O)CC4C=Nc5ccccc54)CC3)n2)CCCCC1 (stereo not shown) [LVII]
HuH7; Homo sapiens, Huh-7, 48 h
  EC50: 5.1 µM

## COc1ccc(C(=O)N2CCC(c3nc(C(=O)Nc4cc(-c5ccco5)n[nH]4)cs3)CC2)c(OC)c1OC [LVI]
HuH7; Homo sapiens, Huh-7, 48 h
  EC50: 3.6 µM
DAN-G
  EC50: 16.9 µM
CX-2
  EC50: > 20 µM
HeLa
  EC50: 10.5 µM
SK-Br-3
  EC50: > 20 µM

## Cc1ccc(C(=O)NNC(=O)c2csc(C3CCN(C(=O)CC4C=Nc5ccccc54)CC3)n2)s1 (stereo not shown) [LV]
HuH7; Homo sapiens, Huh-7, 48 h
  EC50: 4.04 µM

## C#CCOC(=O)N1CCC(c2nc(C(=O)Nc3[nH]nc(C)c3-c3ccccc3)cs2)CC1 [L]
HuH7; Homo sapiens, Huh-7, 48 h
  EC50: 5.4 µM

## Cn1nc(-c2ccccc2)cc1NC(=O)c1csc(C2CCN(C(=O)Cc3c[nH]c4ccccc34)CC2)n1 [VII]
HuH7; Huh-7
  EC50: 3.38 µM
DAN-G
  EC50: 7.1 µM
CX-2
  EC50: > 20 µM
HeLa
  EC50: 12.5 µM
SK-Br-3
  EC50: 10.8 µM

## CCOc1ccccc1N1CCN(C(=O)c2csc(C3CCN(C(=O)CC4C=Nc5ccccc54)CC3)n2)CC1 (stereo not shown) [XII]
HuH7; Homo sapiens, Huh-7, 48 h
  EC50: 13.4 µM

## Cc1csc(NC(=O)c2csc(C3CCN(C(=O)CC4C=Nc5ccccc54)CC3)n2)c1C(N)=O (stereo not shown) [XIV]
HuH7; Homo sapiens, Huh-7, 48 h
  EC50: 12.9 µM

## CS(=O)(=O)c1ccc(CNC(=O)c2csc(C3CCN(C(=O)CC4C=Nc5ccccc54)CC3)n2)cc1 (stereo not shown) [XIX]
HuH7; Homo sapiens, Huh-7, 48 h
  EC50: 8.5 µM

## O=C(CC1C=Nc2ccccc21)N1CCC(c2nc(C(=O)N3CCN(c4c(Cl)cncc4Cl)CC3)cs2)CC1 (stereo not shown) [XLIII]
HuH7; Homo sapiens, Huh-7, 48 h
  EC50: 4.74 µM

## Cc1cnc(NC(=O)c2csc(C3CCN(C(=S)Nc4ccc(N(C)C)cc4)CC3)n2)s1 [XLII]
HuH7; Homo sapiens, Huh-7, 48 h
  EC50: 2.2 µM

## O=C(Nc1cc(-c2ccccc2)n[nH]1)c1csc(C2CCN(C(=O)c3cc4ccccc4o3)CC2)n1 [XLIV]
HuH7; Homo sapiens, Huh-7, 48 h
  EC50: 2.53 µM

## Cn1nc(-c2ccccc2)cc1NC(=O)c1csc(C2CCN(C(=O)c3c(F)cccc3Cl)CC2)n1 [XLIX]
HuH7; Homo sapiens, Huh-7, 48 h
  EC50: 3.03 µM

## COc1ccc(CNC(=O)c2csc(C3CCN(C(=O)CC4C=Nc5ccccc54)CC3)n2)cc1 (stereo not shown) [XLI]
HuH7; Homo sapiens, Huh-7, 48 h
  EC50: 5.9 µM

## Cc1nc(C)c(C(=O)N2CCC(c3nc(C(=O)Nc4cc(-c5ccco5)n[nH]4)cs3)CC2)s1 [XLVIII]
HuH7; Homo sapiens, Huh-7, 48 h
  EC50: 13.9 µM

## Cc1ccc(NC(=O)c2csc(C3CCN(C(=O)CC4C=Nc5ccccc54)CC3)n2)c(F)c1 (stereo not shown) [XLVI]
HuH7; Homo sapiens, Huh-7, 48 h
  EC50: 4 µM

## CN(NC(=O)c1csc(C2CCN(C(=O)CC3C=Nc4ccccc43)CC2)n1)c1cnc2ccccc2n1 (stereo not shown) [XLV]
HuH7; Homo sapiens, Huh-7, 48 h
  EC50: 7.56 µM

## Cn1nc(-c2cccs2)cc1NC(=O)c1csc(C2CCN(C(=O)c3ccccc3C(F)(F)F)CC2)n1 [XVIII]
HuH7; Huh-7
  EC50: 13.4 µM

## Cc1nc(NC(=O)c2csc(C3CCN(C(=O)Cc4c[nH]c5ccccc45)CC3)n2)sc1C [XVII]
DAN-G
  EC50: 5.59 µM
CX-2
  EC50: > 20 µM
HeLa
  EC50: 23.5 µM
SK-Br-3
  EC50: 18.9 µM

## Cc1nc(C)c(C(=O)N2CCC(c3nc(C(=O)NC4C=C(c5cccs5)N=N4)cs3)CC2)s1 (stereo not shown) [XVI]
DAN-G
  EC50: 7.99 µM
CX-2
  EC50: > 20 µM
HeLa
  EC50: 10.5 µM
SK-Br-3
  EC50: > 20 µM

## COc1ccccc1C(=O)NNC(=O)c1csc(C2CCN(C(=O)CC3C=Nc4ccccc43)CC2)n1 (stereo not shown) [XXIII]
HuH7; Homo sapiens, Huh-7, 48 h
  EC50: 16.7 µM

## Cc1nc(C)c(C(=O)N2CCC(c3nc(C(=O)Nc4cc(-c5ccccc5)nn4C)cs3)CC2)s1 [XXII]
HuH7; Huh-7
  EC50: 5.4 µM

## O=C(NC1CCN(Cc2ccccc2)C1)c1csc(C2CCN(C(=O)CC3C=Nc4ccccc43)CC2)n1 (stereo not shown) [XXIX]
HuH7; Homo sapiens, Huh-7, 48 h
  EC50: 2.7 µM

## C#CCOC(=O)N1CCC(c2nc(C(=O)Nc3cc(-c4ccccc4)n[nH]3)cs2)CC1 [XXVIII]
HuH7; Huh-7
  EC50: 2.27 µM

## COc1ccc(CN2CCN(C(=O)c3csc(C4CCN(C(=O)CC5C=Nc6ccccc65)CC4)n3)CC2)cc1 (stereo not shown) [XXVII]
HuH7; Homo sapiens, Huh-7, 48 h
  EC50: 35.6 µM

## Cc1ccc(OCC(=O)N2CCC(c3nc(C(=O)Nc4nccs4)cs3)CC2)cc1C [XXV]
HuH7; Homo sapiens, Huh-7, 48 h
  EC50: 5.8 µM

## CC(=O)c1cc2cc(NC(=O)c3csc(C4CCN(C(=O)CC5C=Nc6ccccc65)CC4)n3)ccc2o1 (stereo not shown) [XXXII]
HuH7; Homo sapiens, Huh-7, 48 h
  EC50: 3.08 µM

## COc1ccc(C(N)=O)cc1NC(=O)c1csc(C2CCN(C(=O)Cc3ccccc3Cl)CC2)n1 [XXXIV]
HuH7; Homo sapiens, Huh-7, 48 h
  EC50: 4.24 µM

## COc1ccc(C(=O)N2CCC(c3nc(C(=O)Nc4cc(-c5cccs5)n[nH]4)cs3)CC2)c(OC)c1OC [XXXIX]
HuH7; Huh-7
  EC50: 2.19 µM

## COc1cccc(CCNC(=O)c2csc(C3CCN(C(=O)CC4C=Nc5ccccc54)CC3)n2)c1 (stereo not shown) [XXXVIII]
HuH7; Homo sapiens, Huh-7, 48 h
  EC50: 20.6 µM

## Cc1cc(Cl)ccc1CNC(=O)c1csc(C2CCN(C(=O)CC3C=Nc4ccccc43)CC2)n1 (stereo not shown) [XXXVI]
HuH7; Homo sapiens, Huh-7, 48 h
  EC50: 3.95 µM

## Cc1nc(C)c(C(=O)N2CCC(c3nc(C(=O)Nc4cc(-c5cccs5)nn4C)cs3)CC2)s1 [XXXV]
HuH7; Homo sapiens, Huh-7, 48 h
  EC50: 3.5 µM

## C=CCSc1ncccc1C(=O)N1CCC(c2nc(C(=O)Nc3cc(C(C)(C)C)n[nH]3)cs2)CC1 [XXX]
HuH7; Homo sapiens, Huh-7, 48 h
  EC50: 4.2 µM
